The target in this assay is T1, anti-MTX VHH.
T1 construct: nanoCLAMP8-VHH fusion for the crystal structure 7RG7
Nature of the assay: microscale thermophoresis (EGFP-VHH titrated with MTX); […] Å crystal structure of the ternary complex with nanoCLAMP8. It is filed as binding. In general terms: Microscale thermophoresis detects binding through changes in fluorescence in a small temperature gradient.

Data on one molecule can be found in PMC8654847, “Design of a methotrexate-controlled chemical dimerization system and its use in bio-electronic devices” (Nature Communications, 2021).

Broadly, the Kd is a measure of binding affinity in units of concentration. Read a low Kd as a tighter complex. `CN(Cc1cnc2nc(N)nc(N)c2n1)c1ccc(C(=O)N[C@@H](CCC(=O)O)C(=O)O)cc1` [MTX, methotrexate]: the dissociation constant (Kd) is 4.3 ± 0.25 nM.
